From patent US5362634A, “Process for producing A83543 compounds” (DowElanco, priority 1991, dated 1994)
≈ marks a conversion by molar mass, not a printed value. Read-outs that look alike come from different tables or passages of the source.

What was measured:
[1] = tested on: fourth instar yellow fever mosquito larvae; experiment: whole plant or invertebrate; design: species or system Aedes aegypti; conditions: 24 hr; for mortality at 0.312 ppm: Aedes aegypti, read-out: Percent Control
From the text: (§1) The A83543 components were active against yellow fever mosquito (Aedes aegypti) larvae in standard in vitro mosquito larvicide tests.
^a At 24 hr when treated at 0.312 ppm

[2] = tested on: first instar yellow fever mosquito larvae; experiment: In vitro mosquito larvicide test, first instar; conditions: Aedes aegypti, 24 h, lowest concentration with 100% inhibition after 24 hr, microtiter plates; read-out: Minimal Inhibitory Concentration
From the text: as §1

[3] = tested on: neonate CBW (cotton bollworm) larvae; experiment: Percent control of neonate CBW larvae by A83543 components, topical pipet method; assay type: in vivo, Heliothis zea; conditions: for mortality at 0.5 ppm / mortality at 1 ppm / mortality at 5 ppm / mortality at 10 ppm: 24 h, read-out: Percent Control
Experimental: Each test compound was formulated by dissolving the compound in an acetone/alcohol (1:1) mixture containing 23 g of "Toximul R" (sulfonate/nonionic emulsifier blend) and 13 g of "Toximul S" (sulfonate/nonionic emulsifier blend) per liter. These mixtures were then diluted with water to give the indicated concentrations.
Additional insects were evaluated using similar formulations and evaluation procedures, with the exceptions noted.
After standard exposure periods, percent mortality was evaluated. The following abbreviations are used:
^1 Treatments with the same letter in parentheses are similar at the
^2 Topical pipet method with 20 larve/replicate and 4 replicates; one
day between treatment and observation.

blow fly larvae (LBF) [4] = experiment: In vitro efficacy, exposure of LBF to chemically added serum samples
From the text: (§2) ^1 Percent insect mortality following 24 to 48 hrs. in vitro exposure
(§3) to chemically added serum samples

blow fly larvae (LBF) [5] = experiment: Guinea pig systemic test, blow fly larvae; assay type: in vivo
Experimental: (§4) Adult guinea pigs are used in this test system. The compounds to be tested are dissolved in aqueous polyvinyl pyrrolidone or in polyethylene glycol 200, and an appropriate amount of the solution is administered either orally or by intraperitoneal injection.
(§5) Blood is drawn from the guinea pigs at 30 minutes except as noted, and the samples of blood are centrifuged. Dental wicks are saturated with the blood serum, and then exposed in Petri dishes to adult stable flies; blow fly larvae are exposed in test tubes. After 24 and 48 hours, the insects are examined, and the number of dead are counted. The results of the tests are recorded as the percent of the insects which are killed.

adult stable fly (ASF) [6] = experiment: Guinea pig systemic test, adult stable fly; assay type: in vivo, Stomoxys calcitrans
Experimental: as §4, §5

adult stable fly (ASF) [7] = experiment: In vitro efficacy, exposure of ASF to chemically added serum samples; conditions: Stomoxys calcitrans, read-out: Percent insect mortality
From the text: as §2, §3

Spodoptera eridania = experiment: Outdoor pot tests against Southern armyworm; assay type: in vivo
From the text: Table XV compares the effectiveness and persistence of A83543A treatment with that of methomyl in outdoor pot tests against Southern armyworm.

[8] = tested on: CRW (Southern corn rootworm); experiment: LC50 against CRW; assay type: in vivo, Diabrotica undecimpunctata howardi; conditions: rate in soil by wt.
From the text: (§6) ^a Corn rootworm rate in soil by wt.; all others as spray

SAW (Southern armyworm) = experiment: LC50 against SAW, foliar; assay type: in vivo; conditions: Spodoptera eridania, spray concentration
From the text: as §6

Grain Aphid = experiment: LC50 against Grain Aphid; assay type: in vivo; conditions: Sitobion avenae; spray concentration
From the text: as §6

[9] = tested on: SM (twospotted spider mite); experiment: LC50 against SM; assay type: in vivo; conditions: Tetranychus urticae; spray concentration
From the text: as §6

CBW (cotton bollworm) = experiment: LC50 against CBW, contact; assay type: in vivo, Heliothis zea; conditions: spray concentration
From the text: as §6

[10] = 0.5 ppm, topical pipet, one day

CC[C@H]1CCC[C@H](O[C@H]2CC[C@H](NC)[C@@H](C)O2)[C@@H](C)C(=O)C2=C[C@@H]3[C@@H](C=C[C@@H]4C[C@@H](O[C@@H]5O[C@@H](C)[C@H](OC)[C@@H](OC)[C@H]5OC)C[C@@H]34)[C@@H]2CC(=O)O1 [A83543B]
mortality at 0.312 ppm [1]: 60%
MIC [2]: 0.016 µg/mL (≈ 0.0223 µM)
mortality at 0.5 ppm [3, 10]: 35%
mortality at 1 ppm ([3]; 1 ppm, topical pipet, one day): 80%
mortality at 5 ppm ([3]; 5 ppm, topical pipet, one day): 100%
mortality at 10 ppm ([3]; 10 ppm, topical pipet, one day): 100%

CC[C@H]1CCC[C@H](O[C@H]2CC[C@H](N)[C@@H](C)O2)[C@@H](C)C(=O)C2=C[C@@H]3[C@@H](C=C[C@@H]4C[C@@H](O[C@@H]5O[C@@H](C)[C@H](OC)[C@@H](OC)[C@H]5OC)C[C@@H]34)[C@@H]2CC(=O)O1 [A83543C]
mortality at 0.312 ppm [1]: 60%
MIC [2]: 0.031 µg/mL (≈ 0.044 µM)
mortality at 0.5 ppm [3, 10]: 5%
mortality at 1 ppm ([3]; 1 ppm, topical pipet, one day): 85%
mortality at 5 ppm ([3]; 5 ppm, topical pipet, one day): 93%
mortality at 10 ppm ([3]; 10 ppm, topical pipet, one day): 100%

CC[C@H]1CCC[C@H](O[C@H]2CC[C@H](N(C)C)[C@@H](C)O2)[C@@H](C)C(=O)C2=C[C@@H]3[C@@H](C=C(C)[C@@H]4C[C@@H](O[C@@H]5O[C@@H](C)[C@H](OC)[C@@H](OC)[C@H]5OC)C[C@@H]34)[C@@H]2CC(=O)O1 [A83543D]
mortality at 0.312 ppm [1]: 30%
Percent insect mortality (blow fly larvae (LBF) [4]; 0.312 ppm, 24 hr): 25%
Percent insect mortality (blow fly larvae (LBF) [4]; 0.312 ppm, 48 hr): 25%
Percent insect mortality (blow fly larvae (LBF) [4]; 0.625 ppm, 24 hr): 50%
Percent insect mortality (blow fly larvae (LBF) [4]; 0.625 ppm, 48 hr): 75%
Percent insect mortality (blow fly larvae (LBF) [4]; 1.25 ppm, 24 hr): 80%
Percent insect mortality (blow fly larvae (LBF) [4]; 1.25 ppm, 48 hr): 90%
Percent insect mortality (blow fly larvae (LBF) [4]; 2.5 ppm, 24 hr): 90%
Percent insect mortality (blow fly larvae (LBF) [4]; 2.5 ppm, 48 hr): 100%
Percent insect mortality (blow fly larvae (LBF) [4]; 5 ppm, 24 hr): 90%
Percent insect mortality (blow fly larvae (LBF) [4]; 5 ppm, 48 hr): 100%
Percent insect mortality (blow fly larvae (LBF) [4]; 10 ppm, 24 hr): 100%
Percent insect mortality (blow fly larvae (LBF) [4]; 10 ppm, 48 hr): 100%
% Activity LBF (blow fly larvae (LBF) [5]; 10 mg/kg IP, bled 30 min): 0%
% Activity LBF (blow fly larvae (LBF) [5]; 10 mg/kg IP, bled 5 hr): 0%
% Activity LBF (blow fly larvae (LBF) [5]; 10 mg/kg IP, bled 24 hr): 0%
% Activity LBF (blow fly larvae (LBF) [5]; 30 mg/kg IP, bled 30 min): 0%
% Activity LBF (blow fly larvae (LBF) [5]; 30 mg/kg IP, bled 5 hr): 0%
% Activity LBF (blow fly larvae (LBF) [5]; 30 mg/kg IP, bled 24 hr): 0%
% Activity LBF (blow fly larvae (LBF) [5]; 50 mg/kg IP, bled 30 min): 75%
% Activity LBF (blow fly larvae (LBF) [5]; 50 mg/kg IP, bled 5 hr): 0%
% Activity LBF (blow fly larvae (LBF) [5]; 50 mg/kg IP, bled 24 hr): 25%
mortality at 0.5 ppm ([3]; topical): 58%
mortality at 1 ppm ([3]; topical): 90%
mortality at 5 ppm ([3]; topical): 100%
mortality at 10 ppm ([3]; topical): 100%
% Activity ASF (adult stable fly (ASF) [6]; 10 mg/kg IP, bled 30 min): 0%
% Activity ASF (adult stable fly (ASF) [6]; 10 mg/kg IP, bled 5 hr): 0%
% Activity ASF (adult stable fly (ASF) [6]; 10 mg/kg IP, bled 24 hr): 10%
% Activity ASF (adult stable fly (ASF) [6]; 30 mg/kg IP, bled 30 min): 0%
% Activity ASF (adult stable fly (ASF) [6]; 30 mg/kg IP, bled 5 hr): 0%
% Activity ASF (adult stable fly (ASF) [6]; 30 mg/kg IP, bled 24 hr): 0%
% Activity ASF (adult stable fly (ASF) [6]; 50 mg/kg IP, bled 30 min): 0%
% Activity ASF (adult stable fly (ASF) [6]; 50 mg/kg IP, bled 5 hr): 0%
% Activity ASF (adult stable fly (ASF) [6]; 50 mg/kg IP, bled 24 hr): 0%
mortality at 0.312 ppm (adult stable fly (ASF) [7]; 24 hr): 0%
mortality at 0.312 ppm (adult stable fly (ASF) [7]; 48 hr): 0%
mortality at 0.625 ppm (adult stable fly (ASF) [7]; 24 hr): 0%
mortality at 0.625 ppm (adult stable fly (ASF) [7]; 48 hr): 60%
mortality at 1.25 ppm (adult stable fly (ASF) [7]; 24 hr): 10%
mortality at 1.25 ppm (adult stable fly (ASF) [7]; 48 hr): 90%
mortality at 2.5 ppm (adult stable fly (ASF) [7]; 24 hr): 20%
mortality at 2.5 ppm (adult stable fly (ASF) [7]; 48 hr): 100%
mortality at 5 ppm (adult stable fly (ASF) [7]; 24 hr): 20%
mortality at 5 ppm (adult stable fly (ASF) [7]; 48 hr): 90%
mortality at 10 ppm (adult stable fly (ASF) [7]; 24 hr): 50%
mortality at 10 ppm (adult stable fly (ASF) [7]; 48 hr): 100%

CO[C@@H]1[C@@H](OC)[C@H](C)O[C@@H](O[C@H]2C[C@H]3[C@@H]4C=C5C(=O)[C@H](C)[C@@H](O[C@H]6CC[C@H](N(C)C)[C@@H](C)O6)CCC[C@H](C)OC(=O)C[C@H]5[C@@H]4C=C[C@@H]3C2)[C@@H]1OC [A83543E]
mortality at 0.312 ppm [1]: 80%
mortality at 0.5 ppm ([3]; topical): 28%
mortality at 1 ppm ([3]; topical): 58%
mortality at 5 ppm ([3]; topical): 100%
mortality at 10 ppm ([3]; topical): 100%

CC[C@H]1CCC[C@H](O[C@H]2CC[C@H](N(C)C)[C@@H](C)O2)CC(=O)C2=C[C@@H]3[C@@H](C=C[C@@H]4C[C@@H](O[C@@H]5O[C@@H](C)[C@H](OC)[C@@H](OC)[C@H]5OC)C[C@@H]34)[C@@H]2CC(=O)O1 [A83543F]
mortality at 0.312 ppm [1]: 0%
mortality at 0.5 ppm [3, 10]: 0%
mortality at 1 ppm ([3]; 1 ppm, topical pipet, one day): 0%
mortality at 5 ppm ([3]; 5 ppm, topical pipet, one day): 0%
mortality at 10 ppm ([3]; 10 ppm, topical pipet, one day): 95%

CC[C@H]1CCC[C@H](O[C@H]2CC[C@@H](N(C)C)[C@@H](C)O2)[C@@H](C)C(=O)C2=C[C@@H]3[C@@H](C=C[C@@H]4C[C@@H](O[C@@H]5O[C@@H](C)[C@H](OC)[C@@H](OC)[C@H]5OC)C[C@@H]34)[C@@H]2CC(=O)O1 [A83543G]
Percent Control ([1]; 0.312 ppm): 0%
Percent Control ([3]; 0.5 ppm, topical pipet, one day, 1440 min): 0%
Percent Control ([3]; 1 ppm, topical pipet, one day): 0%
Percent Control ([3]; 5 ppm, topical pipet, one day, 1440 min): 20%
Percent Control ([3]; 10 ppm, topical pipet, one day, 1440 min): 80%

CNC(=O)ON=C(C)SC [methomyl, reference compound]
mortality at 63 ppm (Spodoptera eridania; 24 h, 1 day after treatment): 100%
mortality at 125 ppm (Spodoptera eridania; 24 h, 1 day after treatment): 100%
mortality at 250 ppm (Spodoptera eridania; 24 h, 1 day after treatment): 100%
mortality at 500 ppm (Spodoptera eridania; 24 h, 1 day after treatment): 100%
mortality at 63 ppm (Spodoptera eridania; 120 h, 5 days after treatment): 20%
mortality at 125 ppm (Spodoptera eridania; 120 h, 5 days after treatment): 35%
mortality at 250 ppm (Spodoptera eridania; 120 h, 5 days after treatment): 85%
mortality at 500 ppm (Spodoptera eridania; 120 h, 5 days after treatment): 90%
mortality at 63 ppm (Spodoptera eridania; 168 h, 7 days after treatment): 15%
mortality at 125 ppm (Spodoptera eridania; 168 h, 7 days after treatment): 40%
mortality at 250 ppm (Spodoptera eridania; 168 h, 7 days after treatment): 45%
mortality at 500 ppm (Spodoptera eridania; 168 h, 7 days after treatment): 85%
mortality at 63 ppm (Spodoptera eridania; 336 h, 14 days after treatment): 0%
mortality at 125 ppm (Spodoptera eridania; 336 h, 14 days after treatment): 20%
mortality at 250 ppm (Spodoptera eridania; 336 h, 14 days after treatment): 40%
mortality at 500 ppm (Spodoptera eridania; 336 h, 14 days after treatment): 60%
LC50 [8]: 6 µg/mL (≈ 37 µM)
LC50 (SAW (Southern armyworm)): 11.4 µg/mL (≈ 70.3 µM)
LC50 (Grain Aphid): 5.4 µg/mL (≈ 33.3 µM)
LC50 [9]: 71.4 µg/mL (≈ 440 µM)
LC50 (CBW (cotton bollworm)): 14.5 µg/mL (≈ 89.4 µM)
